Test results reported in ChEMBL document CHEMBL1201862, “PubChem BioAssay data set” (2004).
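1) Cells in 96-well plates. 2) Compound, 48 h, 5 concentrations. 3) Linear interpolation between surrounding doses. 4) Unreached endpoint = highest concentration. The concentration for 50% growth inhibition is given as GI50.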 Calls of active or inactive are those of the source. Rule as the data show it: active = GI50 up to about 1.1 µM and inactive = higher.

What was measured:
Assay in all cases: DTP human tumour cell line panel, 48 h
CAKI-1 = system: CAKI-1
RXF 393 = system: RXF 393
OVCAR-5 = system: OVCAR-5
SF-268 = system: SF-268
HT-29 = system: HT-29
OVCAR-3 = system: OVCAR-3
LOX IMVI = system: LOX IMVI
COLO 205 = system: COLO 205
SK-OV-3 = system: SK-OV-3
M14 = system: M14
A549 = system: A549
NCI-H226 = system: NCI-H226
NCI/ADR-RES = system: NCI/ADR-RES
SNB-19 = system: SNB-19
SK-MEL-5 = system: SK-MEL-5
SK-MEL-28 = system: SK-MEL-28
HOP-62 = system: HOP-62
U-251 = system: U-251
MDA-MB-435 = system: MDA-MB-435
MDA-N = system: MDA-N
BT-549 = system: BT-549
Hs-578T = system: Hs-578T
IGROV-1 = system: IGROV-1
HCT-116 = system: HCT-116
EKVX = system: EKVX
A498 = system: A498
OVCAR-8 = system: OVCAR-8
KM12 = system: KM12
UO-31 = system: UO-31
OVCAR-4 = system: OVCAR-4
MDA-MB-231 = system: MDA-MB-231
HCT-15 = system: HCT-15
HL-60 = system: HL-60
TK-10 = system: TK-10
PC-3 = system: PC-3
T47D = system: T47D
UACC-257 = system: UACC-257
DU-145 = system: DU-145
NCI-H522 = system: NCI-H522
MCF7 = system: MCF7
SF-295 = system: SF-295
NCI-H23 = system: NCI-H23
SK-MEL-2 = system: SK-MEL-2
786-0 = system: 786-0
SNB-75 = system: SNB-75
SW-620 = system: SW-620
MOLT-4 = system: MOLT-4
SF-539 = system: SF-539
ACHN = system: ACHN
Malme-3M = system: Malme-3M
CCRF-CEM = system: CCRF-CEM
UACC-62 = system: UACC-62
SN12C = system: SN12C
NCI-H460 = system: NCI-H460
HCC 2998 = system: HCC 2998
K562 = system: K562
RPMI-8226 = system: RPMI-8226
HOP-92 = system: HOP-92

## CCN(CC)CCNc1n[n+]([O-])c2cc([N+](=O)[O-])ccc2[n+]1[O-]
CAKI-1
  GI50: 0.337 µM (active)
RXF 393
  GI50: 1.52 µM (inactive)
OVCAR-5
  GI50: 1.92 µM (inactive)
SF-268
  GI50: 1.11 µM (active)
HT-29
  GI50: 0.374 µM (active)
OVCAR-3
  GI50: 0.893 µM (active)
LOX IMVI
  GI50: 0.601 µM (active)
COLO 205
  GI50: 0.605 µM (active)
SK-OV-3
  GI50: 1.05 µM (active)
M14
  GI50: 0.587 µM (active)
A549
  GI50: 0.752 µM (active)
NCI-H226
  GI50: 1.7 µM (inactive)
NCI/ADR-RES
  GI50: 1.27 µM (inactive)
SNB-19
  GI50: 1.4 µM (inactive)
SK-MEL-5
  GI50: 0.714 µM (active)
SK-MEL-28
  GI50: 6.32 µM (inactive)
HOP-62
  GI50: 0.661 µM (active)
U-251
  GI50: 1.08 µM (active)
MDA-MB-435
  GI50: 1.38 µM (inactive)
MDA-N
  GI50: 0.863 µM (active)
BT-549
  GI50: 2.37 µM (inactive)
Hs-578T
  GI50: 2.59 µM (inactive)
IGROV-1
  GI50: 0.191 µM (active)
HCT-116
  GI50: 0.483 µM (active)
EKVX
  GI50: 1.98 µM (inactive)
A498
  GI50: 1.79 µM (inactive)
OVCAR-8
  GI50: 0.538 µM (active)
KM12
  GI50: 0.948 µM (active)
UO-31
  GI50: 2.94 µM (inactive)
OVCAR-4
  GI50: 1.31 µM (inactive)

## CC1(CC(=O)OC(C#C[Si](C)(C)C)Cc2ccccc2)OCCO1 (configuration not stated)
CAKI-1
  GI50: > 100 µM (inactive)
RXF 393
  GI50: > 100 µM (inactive)
MDA-MB-231
  GI50: > 100 µM (inactive)
OVCAR-5
  GI50: > 100 µM (inactive)
HCT-15
  GI50: > 100 µM
SF-268
  GI50: > 100 µM (inactive)
HL-60
  GI50: > 100 µM (inactive)
HT-29
  GI50: > 100 µM (inactive)
TK-10
  GI50: > 100 µM (inactive)
LOX IMVI
  GI50: > 100 µM (inactive)
PC-3
  GI50: > 100 µM (inactive)
COLO 205
  GI50: > 100 µM (inactive)
T47D
  GI50: > 100 µM (inactive)
UACC-257
  GI50: > 100 µM (inactive)
SK-OV-3
  GI50: > 100 µM (inactive)
DU-145
  GI50: > 100 µM (inactive)
NCI-H522
  GI50: > 100 µM (inactive)
M14
  GI50: > 100 µM (inactive)
A549
  GI50: > 100 µM (inactive)
NCI-H226
  GI50: > 100 µM (inactive)
NCI/ADR-RES
  GI50: > 100 µM (inactive)
MCF7
  GI50: > 100 µM (inactive)
SNB-19
  GI50: > 100 µM (inactive)
SK-MEL-5
  GI50: > 100 µM (inactive)
SK-MEL-28
  GI50: > 100 µM (inactive)
HOP-62
  GI50: > 100 µM (inactive)
SF-295
  GI50: > 100 µM (inactive)
U-251
  GI50: > 100 µM (inactive)
NCI-H23
  GI50: > 100 µM (inactive)
MDA-MB-435
  GI50: > 100 µM (inactive)
SK-MEL-2
  GI50: > 100 µM (inactive)
MDA-N
  GI50: > 100 µM (inactive)
786-0
  GI50: > 100 µM (inactive)
BT-549
  GI50: > 100 µM (inactive)
SNB-75
  GI50: > 100 µM (inactive)
Hs-578T
  GI50: > 100 µM (inactive)
SW-620
  GI50: > 100 µM (inactive)
MOLT-4
  GI50: > 100 µM (inactive)
SF-539
  GI50: > 100 µM (inactive)
IGROV-1
  GI50: > 100 µM (inactive)
HCT-116
  GI50: > 100 µM (inactive)
EKVX
  GI50: > 100 µM (inactive)
ACHN
  GI50: > 100 µM (inactive)
A498
  GI50: > 100 µM (inactive)
Malme-3M
  GI50: > 100 µM (inactive)
CCRF-CEM
  GI50: > 100 µM (inactive)
OVCAR-8
  GI50: > 100 µM (inactive)
KM12
  GI50: > 100 µM (inactive)
UO-31
  GI50: > 100 µM (inactive)
UACC-62
  GI50: > 100 µM (inactive)
SN12C
  GI50: > 100 µM (inactive)
OVCAR-4
  GI50: > 100 µM (inactive)

## CCCCSC1=N/C(=C\c2ccc(N(C)C)cc2)C(Cl)=N1
CAKI-1
  GI50: > 100 µM (inactive)
RXF 393
  GI50: > 100 µM (inactive)
MDA-MB-231
  GI50: > 100 µM (inactive)
OVCAR-5
  GI50: > 100 µM (inactive)
HCT-15
  GI50: > 100 µM
SF-268
  GI50: > 100 µM (inactive)
HT-29
  GI50: > 100 µM (inactive)
OVCAR-3
  GI50: > 100 µM (inactive)
TK-10
  GI50: > 100 µM (inactive)
LOX IMVI
  GI50: > 100 µM (inactive)
PC-3
  GI50: 76.6 µM (inactive)
COLO 205
  GI50: > 100 µM (inactive)
T47D
  GI50: > 100 µM (inactive)
NCI-H460
  GI50: > 100 µM (inactive)
UACC-257
  GI50: > 100 µM (inactive)
SK-OV-3
  GI50: > 100 µM (inactive)
DU-145
  GI50: > 100 µM (inactive)
NCI-H522
  GI50: > 100 µM (inactive)
HCC 2998
  GI50: > 100 µM (inactive)
M14
  GI50: > 100 µM (inactive)
A549
  GI50: > 100 µM (inactive)
K562
  GI50: > 100 µM (inactive)
NCI-H226
  GI50: > 100 µM (inactive)
NCI/ADR-RES
  GI50: > 100 µM (inactive)
MCF7
  GI50: > 100 µM (inactive)
SNB-19
  GI50: > 100 µM (inactive)
SK-MEL-28
  GI50: > 100 µM (inactive)
HOP-62
  GI50: > 100 µM (inactive)
SF-295
  GI50: > 100 µM (inactive)
U-251
  GI50: > 100 µM (inactive)
NCI-H23
  GI50: > 100 µM (inactive)
MDA-MB-435
  GI50: > 100 µM (inactive)
SK-MEL-2
  GI50: > 100 µM (inactive)
MDA-N
  GI50: > 100 µM (inactive)
786-0
  GI50: > 100 µM (inactive)
BT-549
  GI50: > 100 µM (inactive)
SNB-75
  GI50: > 100 µM (inactive)
Hs-578T
  GI50: > 100 µM (inactive)
SW-620
  GI50: > 100 µM (inactive)
MOLT-4
  GI50: > 100 µM (inactive)
SF-539
  GI50: > 100 µM (inactive)
IGROV-1
  GI50: > 100 µM (inactive)
RPMI-8226
  GI50: > 100 µM (inactive)
HCT-116
  GI50: > 100 µM (inactive)
EKVX
  GI50: 89.5 µM (inactive)
ACHN
  GI50: > 100 µM (inactive)
A498
  GI50: 78.2 µM (inactive)
Malme-3M
  GI50: > 100 µM (inactive)
OVCAR-8
  GI50: > 100 µM (inactive)
KM12
  GI50: > 100 µM (inactive)
UO-31
  GI50: > 100 µM (inactive)
UACC-62
  GI50: 94.4 µM (inactive)
SN12C
  GI50: > 100 µM (inactive)
HOP-92
  GI50: > 100 µM (inactive)
OVCAR-4
  GI50: > 100 µM (inactive)
